Assay results from patent US9586956B2, “Isoquinoline and naphthyridine derivatives” (Genentech, Inc., priority 2012, dated 2017).

Target: T1, purified human MAP4K4 kinase domain (Homo sapiens, UniProt O95819)
T1 construct: purified human MAP4K4 kinase domain
Assay: MAP4K4 Inhibition Assay Protocol No. 2 (Z'-LYTE FRET)
Type: biochemical
Details: Assay 2; 1 nM enzyme, 10 uM ATP, 60 min
Text: The kinase activity of purified human MAP4K4 kinase domain was monitored using Z'-LYTE™ technology from Invitrogen to determine inhibition constants (IC50) of small molecule inhibitors. The Z'-LYTE™ biochemical assay employs a fluorescence-based, coupled-enzyme format and is based on the differential sensitivity of phosphorylated and non-phosphorylated peptides to proteolytic cleavage. In the primary reaction, the kinase transfers the gamma-phosphate of ATP to a single tyrosine, serine or threonine residue in a synthetic FRET-peptide. In the secondary reaction, a site-specific protease recognizes and cleaves non-phosphorylated FRET-peptides. Phosphorylation of FRET-peptides suppresses cleavage by the Development Reagent. Cleavage disrupts FRET between the donor (i.e., coumarin) and acceptor (i.e., fluorescein) fluorophores on the FRET-peptide, whereas uncleaved, phosphorylated FRET-peptides maintain FRET. To determine inhibition constants (IC50), compounds were serially diluted in DMSO and added to 10 uL kinase reactions containing 1 nM purified MAP4K4 enzyme, 2 uM ser/thr7 Z'-LYTE™ substrate, 10 uMATP, 50 mM Hepes (pH 7.5), 10 mM MgCl2, 1 mM EGTA, 0.01% Brij-35, and 2% DMSO. Reactions were incubated at room temperature in Corning Black 384 well plates (Corning#3573) for 60 minutes and stopped by the addition of 5 uL of Z'-LYTE™ development reagent A and incubated at room temp for 60 minutes. The plate is then analyzed on Perkin Elmer Envision by FRET mode. The high ratio of coumarin/fluorescein represents 0% phosphorylation rate while low ratio of coumarin/fluorescein represents 100% phosphorylation rate. The following equations are used to determine extent of peptide phosphorylation or inhibition: […]

T1 sequence (O95819 25-289 limits assumed): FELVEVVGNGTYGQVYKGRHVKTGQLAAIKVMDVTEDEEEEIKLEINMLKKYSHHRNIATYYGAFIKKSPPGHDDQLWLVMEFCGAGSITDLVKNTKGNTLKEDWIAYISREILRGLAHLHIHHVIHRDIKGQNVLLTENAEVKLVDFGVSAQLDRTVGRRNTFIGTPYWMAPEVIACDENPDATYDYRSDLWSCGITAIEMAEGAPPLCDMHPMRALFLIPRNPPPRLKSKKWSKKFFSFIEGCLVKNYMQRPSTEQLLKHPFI

IC50 [µM]	Compound
0.00652	CCOC(=O)c1cnc(N)c2nc(-c3ccc(F)cc3C)ccc12 [Example 153, ethyl 8-amino-2-(4-fluoro-2-methyl-phenyl)-1,7-naphthyridine-5-carboxylate]
0.0116	CS(=O)(=O)N1CC(NC(=O)c2cnc(N)c3nc(-c4cccc(F)c4)ccc23)C1 [Example 18, 8-amino-2-(3-fluorophenyl)-N-(1-(methylsulfonyl)azetidin-3-yl)-1,7-naphthyridine-5-carboxamide]
0.00339	CCOC(=O)c1cnc(N)c2nc(-c3ccnc(C)c3)ccc12 [Example 141, ethyl 8-amino-2-(2-methyl-4-pyridyl)-1,7-naphthyridine-5-carboxylate]
0.00248	Nc1ncc(-c2cn(CCN3CCOCC3)cn2)c2ccc(-c3cccc(F)c3)nc12 [Example 43, 2-(3-fluorophenyl)-5-(1-(2-morpholinoethyl)-1H-imidazol-4-yl)-1,7-naphthyridin-8-amine]
0.00411	CC(=O)N1CC(NC(=O)c2cnc(N)c3nc(-c4cccc(F)c4)ccc23)C1 [Example 26, N-(1-acetylazetidin-3-yl)-8-amino-2-(3-fluorophenyl)-1,7-naphthyridine-5-carboxamide]
0.004	C[C@@H](O)C(=O)N1CC(NC(=O)c2cnc(N)c3nc(-c4cccc(F)c4)ccc23)C1 [Example 24, (R)-8-amino-2-(3-fluorophenyl)-N-(1-(2-hydroxypropanoyl)azetidin-3-yl)-1,7-naphthyridine-5-carboxamide]
1.2	CN(C(=O)c1cnc(N)c2nc(-c3cccc(F)c3)ccc12)C1CN(C(=O)C2CC2)C1 [Example 41, 8-amino-N-(1-(cyclopropanecarbonyl)azetidin-3-yl)-2-(3-fluorophenyl)-N-methyl-1,7-naphthyridine-5-carboxamide]
0.382	CCOC(=O)c1cnc(N)c2nc(-c3ccc(Cl)cc3Cl)ccc12 [Example 154, ethyl 8-amino-2-(2,4-dichloro-phenyl)-1,7-naphthyridine-5-carboxylate]
0.134	CCOC(=O)c1cnc(N)c2nc(-c3ccc(OC)cc3Cl)ccc12 [Example 155, ethyl 8-amino-2-(2-chloro-4-methoxy-phenyl)-1,7-naphthyridine-5-carboxylate]

Target: T1, purified human MAP4K4 kinase domain
Assay: MAP4K4 Inhibition Assay Protocol No. 1 (Caliper LabChip, moesin-derived peptide phosphorylation)
Type: biochemical
Details: Assay 1; 1 nM enzyme, 10 uM ATP, 45 min
Procedure: The kinase activity of purified human MAP4K4 kinase domain was measured by monitoring the phosphorylation of a peptide substrate derived from moesin protein (Leu-Gly-Arg-Asp-Lys-Tyr-Lys-Thr-Leu-Arg-Gln-Ile-Arg-Gln) fluorescently labeled on the N-terminus with 5-carboxyfluorescein using the Caliper LabChip technology (Caliper Life Sciences, Hopkinton, Mass.). To determine inhibition constants (IC50), compounds were serially diluted in DMSO and added to 10 uL kinase reactions containing 1 nM purified MAP4K4 enzyme, 1 uM peptide substrate, 10 uM ATP, 10 mM MgCl2, 1 mM EGTA, 50 mM Hepes pH 7.2, 1 mM DTT, 0.01% Triton X-100, and 2% DMSO. Reactions were incubated at room temperature in Perkin Elmer Proxiplates for 45 minutes and stopped by the addition of 10 uL of an EDTA-containing solution (50 mM Hepes pH 7.2, 40 mM EDTA, 0.02% Triton X-100). The fraction of phosphorylated peptide was determined as a fraction of total peptide substrate using the Caliper Lab Chip 3000 according to the manufacturer's instructions. IC50 values were determined using the four-parameter non-linear fit model.

IC50 [µM]	Compound
0.0127	Nc1ncc(C(=O)Nc2ccc(CO)cc2)c2ccc(-c3cccc(F)c3)cc12 [Example 63, 1-amino-7-(3-fluorophenyl)-N-[4-(hydroxymethyl)phenyl]isoquinoline-4-carboxamide]
0.0731	Nc1ncc(C(=O)NC2CCOC2)c2ccc(-c3cccc(F)c3)cc12 (stereo not shown) [Example 112, 1-amino-7-(3-fluorophenyl)-N-tetrahydrofuran-3-yl-isoquinoline-4-carboxamide]
0.0441	N#CCNC(=O)c1cnc(N)c2cc(-c3cccc(F)c3)ccc12 [Example 111, 1-amino-N-(cyanomethyl)-7-(3-fluorophenyl) isoquinoline-4-carboxamide]
0.25	CC(=O)NCCNC(=O)c1cnc(N)c2cc(-c3cccc(F)c3)ccc12 [Example 80, N-(2-acetamidoethyl)-1-amino-7-(3-fluorophenyl) isoquinoline-4-carboxamide]
0.507	Nc1ncc(C(=O)NCCN2CCCC2=O)c2ccc(-c3cccc(F)c3)cc12 [Example 77, 1-amino-7-(3-fluorophenyl)-N-[2-(2-oxopyrrolidin-1-yl)ethyl]isoquinoline-4-carboxamide]
0.115	NC(=O)CNC(=O)c1cnc(N)c2cc(-c3cccc(F)c3)ccc12 [Example 103, 1-amino-N-(2-amino-2-oxo-ethyl)-7-(3-fluorophenyl) isoquinoline-4-carboxamide]
0.0909	Cc1cnc(CNC(=O)c2cnc(N)c3cc(-c4cccc(F)c4)ccc23)cn1 [Example 104, 1-amino-7-(3-fluorophenyl)-N-[(5-methylpyrazin-2-yl)methyl]isoquinoline-4-carboxamide]
4.2	CS(=O)(=O)N1CCN(C(=O)c2cnc(N)c3cc(-c4cccc(F)c4)ccc23)CC1 [Example 48, [1-amino-7-(3-fluorophenyl)-4-isoquinolyl]-(4-methylsulfonylpiperazin-1-yl)methanone]
0.231	Nc1ncc(C(=O)NCc2cnccn2)c2ccc(-c3cccc(F)c3)cc12 [Example 89, 1-amino-7-(3-fluorophenyl)-N-(pyrazin-2-ylmethyl) isoquinoline-4-carboxamide]
0.138	Nc1ncc(C(=O)NCC(=O)N2CCOCC2)c2ccc(-c3cccc(F)c3)cc12 [Example 81, 1-amino-7-(3-fluorophenyl)-N-(2-morpholino-2-oxo-ethyl)isoquinoline-4-carboxamide]
0.95	CC(C)(CNC(=O)c1cnc(N)c2cc(-c3cccc(F)c3)ccc12)N1CCOCC1 [Example 88, 1-amino-7-(3-fluorophenyl)-N-(2-methyl-2-morpholino-propyl)isoquinoline-4-carboxamide]
0.0156	Nc1ncc(C(=O)NC2CC2)c2ccc(-c3cccc(F)c3)cc12 [Example 108, 1-amino-N-cyclopropyl-7-(3-fluorophenyl) isoquinoline-4-carboxamide]
0.0377	Cc1ncccc1NC(=O)c1cnc(N)c2cc(-c3cccc(F)c3)ccc12 [Example 105, 1-amino-7-(3-fluorophenyl)-N-(2-methyl-3-pyridyl) isoquinoline-4-carboxamide]
0.0506	CC(=O)N1CC(NC(=O)c2cnc(N)c3cc(-c4cccc(F)c4)ccc23)C1 [Example 9, N-(1-acetylazetidin-3-yl)-1-amino-7-(3-fluorophenyl)isoquinoline-4-carboxamide]
0.299	Nc1ncc(-c2nc3ccccc3[nH]2)c2ccc(-c3cccc(F)c3)cc12 [Example 2, 4-(1H-benzimidazol-2-yl)-7-(3-fluorophenyl)isoquinolin-1-amine]
0.0221	N#Cc1cnc(N)c2cc(-c3cccc(F)c3)ccc12 [Example 4, 1-amino-7-(3-fluorophenyl)isoquinoline-4-carbonitrile]
0.363	C[C@H](NC(=O)c1cnc(N)c2cc(-c3cccc(F)c3)ccc12)C(N)=O [Example 85, 1-amino-N-[(1S)-2-amino-1-methyl-2-oxo-ethyl]-7-(3-fluorophenyl) isoquinoline-4-carboxamide]
0.0395	Nc1ncc(C(=O)NCCCO)c2ccc(-c3cccc(F)c3)cc12 [Example 100, 1-amino-7-(3-fluorophenyl)-N-(3-hydroxypropyl) isoquinoline-4-carboxamide]
2.4	CC(C)(N)CNC(=O)c1cnc(N)c2cc(-c3cccc(F)c3)ccc12 [Example 78, 1-amino-N-(2-amino-2-methyl-propyl)-7-(3-fluorophenyl) isoquinoline-4-carboxamide]
0.0224	Nc1ncc(C(=O)Nc2ccncc2)c2ccc(-c3cccc(F)c3)cc12 [Example 106, 1-amino-7-(3-fluorophenyl)-N-(4-pyridyl)isoquinoline-4-carboxamide]
0.0395	CNC(=O)c1cnc(N)c2cc(-c3cccc(F)c3)ccc12 [Example 74, 1-amino-7-(3-fluorophenyl)-N-methyl-isoquinoline-4-carboxamide]
0.651	CN1CCC(NC(=O)c2cnc(N)c3cc(-c4cccc(F)c4)ccc23)CC1 [Example 67, 1-amino-7-(3-fluorophenyl)-N-(1-methyl-4-piperidyl) isoquinoline-4-carboxamide]
0.0148	COc1ccc(NC(=O)c2cnc(N)c3cc(-c4cccc(F)c4)ccc23)cc1 [Example 75, 1-amino-7-(3-fluorophenyl)-N-(4-methoxyphenyl) isoquinoline-4-carboxamide]
0.557	C[C@@H](NC(=O)c1cnc(N)c2cc(-c3cccc(F)c3)ccc12)C(N)=O [Example 84, 1-amino-N-[(1R)-2-amino-1-methyl-2-oxo-ethyl]-7-(3-fluorophenyl) isoquinoline-4-carboxamide]
0.0774	Nc1ncc(C(=O)NCCO)c2ccc(-c3cccc(F)c3)cc12 [Example 109, 1-amino-7-(3-fluorophenyl)-N-(2-hydroxyethyl) isoquinoline-4-carboxamide]
